Reference: ChEMBL document CHEMBL5528083, “Discovery of a Novel Thienopyrimidine Compound as a Urate Transporter 1 and Glucose Transporter 9 Dual Inhibitor with Improved Efficacy and Favorable Druggability” (J Med Chem, 2024)

Legend:
[1] = Toxicity in Kunming female mouse assessed as renal injury at 100 mg/kg, po administered every other day for 14 days by H and E staining based assay; format: organism-based; conditions: in vivo, 336 h, time 14 day
[2] = Toxicity in Kunming female mouse assessed as coagulation necrosis of hepatocyte at 100 mg/kg, po administered every other day for 14 days by H and E staining based assay; format: organism-based; conditions: 336 h, time 14 day
[3] = Toxicity in Kunming female mouse assessed as balloon like degeneration of liver at 100 mg/kg, po administered every other day for 14 days by H and E staining based assay; format: organism-based; conditions: in vivo, 336 h, time 14 day
[4] = molecular target: Xanthine dehydrogenase/oxidase (Bos taurus, UniProt P80457); assay: Inhibition of bovine XOD using xanthine as substrate assessed as inhibitory ratio at 10 uM by spectrophotometric analysis relative to control; conditions: cattle
Mus musculus [5] = assay: Reduction in serum uric acid level in acute hyperuricemia state Kunming mouse model assessed as SUA level by measuring decrease ratio at 2 mg/kg, po relative to control; format: functional; parameters: scale not given: the % may be the effect or the level left
[6] = Acute toxicity in Kunming mouse assessed as fatality rate at 500 mg/kg, po administered as single dose monitored for 7 days; format: organism-based; conditions: Kunming, in vivo, time 7 day, read-out: Activity
Mus musculus [7] = species: Mus musculus; assay: Reduction in serum uric acid level in acute hyperuricemia state Kunming mouse model assessed as SUA level; format: functional
Mus musculus [8] = assay: Reduction in serum uric acid level in acute hyperuricemia state Kunming mouse model assessed as SUA level at 2 mg/kg, po (reference value: 1037 +/- 106.59 uM); format: functional
Rattus norvegicus [9] = assay: Reduction in serum uric acid level in po dosed acute hyperuricemia state Sprague-Dawley rat model assessed as SUA level (reference value: 955.20 +/- 85.56 uM); format: functional
Rattus norvegicus [10] = assay: Reduction in serum uric acid level in po dosed acute hyperuricemia state Sprague-Dawley rat model assessed as SUA level by measuring decrease ratio relative to control; format: functional; parameters: scale not given: the % may be the effect or the level left
Mus musculus [11] = species: Mus musculus; assay: Reduction in serum uric acid level in acute hyperuricemia state Kunming mouse model assessed as SUA level by measuring decrease ratio relative to control; format: functional; parameters: concentration or dose not given beside the values
Mus musculus [12] = species: Mus musculus; assay: Reduction in serum uric acid level in chronic hyperuricemia state Kunming mouse model assessed as SUA level (reference value: 660.33 +/- 103.57 uM); format: functional
Mus musculus [13] = species: Mus musculus; assay: Reduction in serum uric acid level in chronic hyperuricemia state Kunming mouse model assessed as SUA level by measuring decrease ratio relative to control; format: functional; parameters: scale not given: the % may be the effect or the level left
[14] = Subacute toxicity in Kunming mouse assessed as abnormal behavior at 25 mg/kg, po administered every other day for 14 days; format: organism-based; conditions: in vivo, 336 h, time 14 day
[15] = Acute toxicity in Kunming mouse assessed as fatality rate at 1000 mg/kg, po administered as single dose monitored for 7 days; format: organism-based; conditions: Kunming, in vivo, time 7 day, read-out: Activity

Xanthine dehydrogenase/oxidase, sequence (P80457 whole entry): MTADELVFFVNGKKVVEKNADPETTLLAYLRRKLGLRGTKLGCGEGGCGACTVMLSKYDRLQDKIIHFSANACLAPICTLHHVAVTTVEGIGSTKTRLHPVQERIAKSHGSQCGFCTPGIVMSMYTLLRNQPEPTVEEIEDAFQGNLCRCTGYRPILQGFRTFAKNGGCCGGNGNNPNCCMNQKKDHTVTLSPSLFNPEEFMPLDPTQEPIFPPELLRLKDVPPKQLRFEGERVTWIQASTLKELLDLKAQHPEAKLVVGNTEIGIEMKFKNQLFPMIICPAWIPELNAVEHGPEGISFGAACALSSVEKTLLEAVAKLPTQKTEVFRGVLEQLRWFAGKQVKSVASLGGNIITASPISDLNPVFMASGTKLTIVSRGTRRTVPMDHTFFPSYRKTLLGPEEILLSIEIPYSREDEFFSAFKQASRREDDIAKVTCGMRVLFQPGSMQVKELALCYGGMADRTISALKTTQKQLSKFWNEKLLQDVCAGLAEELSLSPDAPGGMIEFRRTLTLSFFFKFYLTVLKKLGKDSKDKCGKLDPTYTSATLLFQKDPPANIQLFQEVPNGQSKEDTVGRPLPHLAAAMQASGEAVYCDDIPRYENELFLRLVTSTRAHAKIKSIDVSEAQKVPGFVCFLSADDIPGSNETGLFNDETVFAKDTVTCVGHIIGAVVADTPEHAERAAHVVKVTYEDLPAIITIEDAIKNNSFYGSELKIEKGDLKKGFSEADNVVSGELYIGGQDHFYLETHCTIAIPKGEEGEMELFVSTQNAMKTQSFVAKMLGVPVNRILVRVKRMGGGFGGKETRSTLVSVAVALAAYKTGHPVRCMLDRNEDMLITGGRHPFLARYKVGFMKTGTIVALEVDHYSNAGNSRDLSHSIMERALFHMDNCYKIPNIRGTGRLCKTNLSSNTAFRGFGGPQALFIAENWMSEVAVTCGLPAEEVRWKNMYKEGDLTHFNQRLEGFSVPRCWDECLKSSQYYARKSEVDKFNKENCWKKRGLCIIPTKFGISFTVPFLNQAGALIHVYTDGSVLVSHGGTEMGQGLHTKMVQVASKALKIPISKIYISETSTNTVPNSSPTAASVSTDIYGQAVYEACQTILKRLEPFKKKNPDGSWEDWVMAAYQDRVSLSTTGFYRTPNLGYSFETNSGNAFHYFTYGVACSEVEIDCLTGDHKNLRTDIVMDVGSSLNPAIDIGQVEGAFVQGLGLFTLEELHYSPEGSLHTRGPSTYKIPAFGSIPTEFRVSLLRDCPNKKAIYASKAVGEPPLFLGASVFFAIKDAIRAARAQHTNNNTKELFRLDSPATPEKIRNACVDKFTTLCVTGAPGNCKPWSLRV

O=C(O)CSc1nnc(Br)n1-c1ccc(C2CC2)c2ccccc12
Activity [1]: Toxic
Activity [2]: Toxic
Activity [3]: Toxic
inhibition at 10 µM [4]: 5.72%
Activity (Mus musculus [5]): 35.56%
mortality at 168 h [6]: 20%
Activity (Mus musculus [7]): 841.2 µM
Activity (Mus musculus [8]): 706.25 µM
Activity (Rattus norvegicus [9]): 685.6 µM
Activity (Rattus norvegicus [10]): 31.77%
Activity (Mus musculus [11]): 28.5%
Activity (Mus musculus [12]): 476 µM
Activity (Mus musculus [13]): 33.56%
Activity [14]: Non-Toxic
mortality at 168 h [15]: 60%
